Patent US20260265244A1, “HETEROCYCLIC COMPOUNDS AS STING ANTAGONISTS” (Boehringer Ingelheim International GmbH, priority 2022, published 2026)

Experiments:
[1] = target: T1, human STING WT (R232) (Homo sapiens, UniProt Q86WV6, H232R); assay: Human STING HTRF binding assay (competitive, Cisbio 64BDSTGPEG)
T1 construct: purchased Cisbio 64BDSTGPEG
Summary of the method: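 Competitive HTRF: 6His-tagged human STING WT R232 binding domain (residues 138-379) with anti-6His Cryptate antibody and d2-labeled STING ligand, 180 min at room temperature, 1% DMSO, 8 concentrations from 10 μM or 1 μM top in ~1:5 steps. HTRF ratios were calibrated to a cGAMP standard curve and IC50 obtained by 4-parameter logistic fit.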

[2] = tested on: STING inhibition in human whole blood (IFNα2α production); assay: Human whole blood assay (HWBA): cGAMP-stimulated IFNα2α production; format: cell-based; settings: Homo sapiens
Summary of the method: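 Na-citrate human whole blood from ≥3 healthy donors, preincubated 60 min at room temperature with compound (8 concentrations, top 10 μM, ~1:5 steps, 0.1% DMSO), then stimulated with cGAMP and incubated 22 h at 37 °C. Plasma IFNα2α measured by MSD immunoassay; % control versus stimulated/unstimulated wells, IC50 by 4-parameter logistic fit.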

T1 sequence (Q86WV6 138-379 H232R): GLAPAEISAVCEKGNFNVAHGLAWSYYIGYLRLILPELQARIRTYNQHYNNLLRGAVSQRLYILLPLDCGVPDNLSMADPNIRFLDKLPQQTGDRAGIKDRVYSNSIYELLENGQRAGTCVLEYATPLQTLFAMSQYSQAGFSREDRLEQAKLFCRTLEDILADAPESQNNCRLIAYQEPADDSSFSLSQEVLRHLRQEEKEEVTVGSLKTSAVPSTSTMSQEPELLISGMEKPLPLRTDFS

Work on Cc1nc2nn(CC3CC3)cc2cc1-n1nc(-c2cccc3nn(C[C@H](O)c4ccccc4)cc23)c(C(C)C)c1C [Example 56, (1R)-2-(4-{1-[2-(cyclopropylmethyl)-6-methyl-2H-pyrazolo[3,4-b]pyridin-5-yl]-5-methyl-4-(propan-2-yl)-1H-pyrazol-3-yl}-2H-indazol-2-yl)-1-phenylethan-1-ol] yielded an IC50 [1] of 18.1 nM and an IC50 [2] of 210 nM.
Compound CC(C)c1c(-c2cccc3nn(C[C@H](O)c4ccccc4)cc23)nc(-c2cc3cn(C)nc3nc2C(F)(F)F)n1C [Example 57, (1R)-2-(4-{1-methyl-2-[2-methyl-6-(trifluoromethyl)-2H-pyrazolo[3,4-b]pyridin-5-yl]-5-(propan-2-yl)-1H-imidazol-4-yl}-2H-indazol-2-yl)-1-phenylethan-1-ol] has an IC50 [1] of 24.9 nM and an IC50 [2] of 230 nM.
In the case of COC(C)c1nc2nn(C)cc2cc1-n1nc(-c2cccc3nn(C[C@H](O)c4ccccc4)cc23)c(C(C)C)c1C (stereo partly drawn) [Example 58, (1R)-2-(4-{1-[6-(1-methoxyethyl)-2-methyl-2H-pyrazolo[3,4-b]pyridin-5-yl]-5-methyl-4-(propan-2-yl)-1H-pyrazol-3-yl}-2H-indazol-2-yl)-1-phenylethan-1-ol], the IC50 [1] is reported as 15.8 nM and the IC50 [2] is reported as 230 nM.
CCCc1nc2nn(C)cc2cc1-n1nc(-c2cccc3nn(C[C@H](O)c4ccccc4)cc23)c(C(C)C)c1C [Example 60, (1R)-2-[4-(5-methyl-1-{2-methyl-6-propyl-2H-pyrazolo[3,4-b]pyridin-5-yl}-4-(propan-2-yl)-1H-pyrazol-3-yl)-2H-indazol-2-yl]-1-phenylethan-1-ol] gave an IC50 [1] of 23.9 nM and an IC50 [2] of 240 nM.
Cc1nc2nn(Cc3ncnn3C)cc2cc1-n1nc(-c2cccc3nn(C[C@H](O)c4ccccc4)cc23)c(C(C)C)c1C [Example 62, (1R)-2-[4-(5-methyl-1-{6-methyl-2-[(1-methyl-1H-1,2,4-triazol-5-yl)methyl]-2H-pyrazolo[3,4-b]pyridin-5-yl}-4-(propan-2-yl)-1H-pyrazol-3-yl)-2H-indazol-2-yl]-1-phenylethan-1-ol] gave an IC50 [1] of 19.1 nM and an IC50 [2] of 300 nM.
Cc1nc2nn(C)cc2cc1-n1nc(-c2cccc3nn(C[C@H](OCC4CC4)c4ccccc4)cc23)c(C(C)C)c1C [Example 63, 2-[(2R)-2-(cyclopropylmethoxy)-2-phenylethyl]-4-(1-{2,6-dimethyl-2H-pyrazolo[3,4-b]pyridin-5-yl}-5-methyl-4-(propan-2-yl)-1H-pyrazol-3-yl)-2H-indazole] gave an IC50 [1] of 39.8 nM and an IC50 [2] of 300 nM.
In the case of Cc1c(C(C)C)c(-c2cccc3nn(C[C@H](O)c4ccccc4)cc23)nn1-c1cc2cn(C)nc2nc1C(F)F [Example 64, (1R)-2-(4-{1-[6-(difluoromethyl)-2-methyl-2H-pyrazolo[3,4-b]pyridin-5-yl]-5-methyl-4-(propan-2-yl)-1H-pyrazol-3-yl}-2H-indazol-2-yl)-1-phenylethan-1-ol], the IC50 [1] is reported as 7.6 nM and the IC50 [2] is reported as 300 nM.
Work on Cc1nc2nn(C)cc2cc1-n1nc(-c2cccc3nn(CCc4ccc(OCCN(C)C)cc4)cc23)c(C(C)C)c1C [Example 65, [2-(4-{2-[4-(1-{2,6-dimethyl-2H-pyrazolo[3,4-b]pyridin-5-yl}-5-methyl-4-(propan-2-yl)-1H-pyrazol-3-yl)-2H-indazol-2-yl]ethyl}phenoxy)ethyl]dimethylamine] yielded an IC50 [1] of 16.9 nM and an IC50 [2] of 320 nM.
For Cc1nc2nn(C)cc2cc1-n1nc(-c2cccc3nn(C[C@H](OCCCCO)c4ccccc4)cc23)c(C(C)C)c1C [Example 66, 4-[(1R)-2-[4-(1-{2,6-dimethyl-2H-pyrazolo[3,4-b]pyridin-5-yl}-5-methyl-4-(propan-2-yl)-1H-pyrazol-3-yl)-2H-indazol-2-yl]-1-phenylethoxy]butan-1-ol], the IC50 [1] was 8 nM and the IC50 [2] was 320 nM.
Cc1nc2nn(CC(O)CO)cc2cc1-n1nc(-c2cccc3nn(C[C@H](O)c4ccccc4)cc23)c(C(C)C)c1C (stereo partly drawn) [Example 67, 3-[5-(3-{2-[(2R)-2-hydroxy-2-phenylethyl]-2H-indazol-4-yl}-5-methyl-4-(propan-2-yl)-1H-pyrazol-1-yl)-6-methyl-2H-pyrazolo[3,4-b]pyridin-2-yl]propane-1,2-diol] was tested, and the IC50 [1] was 10.8 nM and the IC50 [2] was 330 nM.
In the case of Cn1cc2cc(-c3nc(-c4cccc5nn(C[C@H](O)c6ccc(OCC7CCOCC7)cc6)cc45)c(C4CC4)n3C)c(C3CC3)nc2n1 [Example 68], the IC50 [1] is reported as 17.7 nM and the IC50 [2] is reported as 350 nM.
Cn1cc2cc(-c3nc(-c4cccc5nn(C[C@H](O)c6ccc(OC7COC7)cc6)cc45)c(C4CC4)n3C)c(C3CC3)nc2n1 [Example 69, (1R)-2-[4-(5-cyclopropyl-2-{6-cyclopropyl-2-methyl-2H-pyrazolo[3,4-b]pyridin-5-yl}-1-methyl-1H-imidazol-4-yl)-2H-indazol-2-yl]-1-[4-(oxetan-3-yloxy)phenyl]ethan-1-ol] showed an IC50 [1] of 7.5 nM and an IC50 [2] of 360 nM.
With Cc1nc2nn(CC(O)CN3CCN(C)CC3)cc2cc1-n1nc(-c2cccc3nn(C[C@H](O)c4ccccc4)cc23)c(C(C)C)c1C (stereo partly drawn) [Example 70, 1-[5-(3-{2-[(2R)-2-hydroxy-2-phenylethyl]-2H-indazol-4-yl}-5-methyl-4-(propan-2-yl)-1H-pyrazol-1-yl)-6-methyl-2H-pyrazolo[3,4-b]pyridin-2-yl]-3-(4-methylpiperazin-1-yl)propan-2-ol] the IC50 [1] was 37.7 nM and the IC50 [2] was 370 nM.
Work on CCc1nc2nn(C)cc2cc1-c1nc(-c2cccc3nn(C[C@H](F)c4ccc(Cl)cc4)cc23)c(C2CC2)n1C [Example 72, 2-[(2R)-2-(4-chlorophenyl)-2-fluoroethyl]-4-(5-cyclopropyl-2-{6-ethyl-2-methyl-2H-pyrazolo[3,4-b]pyridin-5-yl}-1-methyl-1H-imidazol-4-yl)-2H-indazole] yielded an IC50 [1] of 17.6 nM and an IC50 [2] of 400 nM.
In the case of Cc1c(C(C)C)c(-c2cccc3nn(C[C@H](O)c4ccccc4)cc23)nn1-c1cc2cn(C)nc2nc1C1CCOCC1 [Example 73, (1R)-2-(4-{5-methyl-1-[2-methyl-6-(oxan-4-yl)-2H-pyrazolo[3,4-b]pyridin-5-yl]-4-(propan-2-yl)-1H-pyrazol-3-yl}-2H-indazol-2-yl)-1-phenylethan-1-ol], the IC50 [1] is reported as 11.4 nM and the IC50 [2] is reported as 440 nM.
CC(C)c1nc2nn(C)cc2cc1-c1nc(-c2cccc3nn(CS(=O)(=O)c4ccccc4)cc23)c(C2CC2)n1C [Example 96, 2-[(Benzenesulfonyl)methyl]-4-{5-cyclopropyl-1-methyl-2-[2-methyl-6-(propan-2-yl)-2H-pyrazolo[3,4-b]pyridin-5-yl]-1H-imidazol-4-yl}-2H-indazole] showed an IC50 [1] of 34 nM and an IC50 [2] of 2900 nM.
In the case of CC(C)c1nc2nn(C)cc2cc1-c1nc(-c2cccc3nn(C[C@H](O)c4ccccc4)cc23)c(C2CC2)n1C [Example 97, (1R)-2-(4-{5-Cyclopropyl-1-methyl-2-[2-methyl-6-(propan-2-yl)-2H-pyrazolo[3,4-b]pyridin-5-yl]-1H-imidazol-4-yl}-2H-indazol-2-yl)-1-phenylethan-1-ol], the IC50 [1] is reported as 3.4 nM and the IC50 [2] is reported as 52 nM.
With Cc1nc2nn(CC#N)cc2cc1-n1nc(-c2cccc3nn(C[C@H](O)c4ccccc4)cc23)c(C(C)C)c1C [Example 98, 2-[5-(3-{2-[(2R)-2-hydroxy-2-phenylethyl]-2H-indazol-4-yl}-5-methyl-4-(propan-2-yl)-1H-pyrazol-1-yl)-6-methyl-2H-pyrazolo[3,4-b]pyridin-2-yl]acetonitrile] the IC50 [1] was 3.1 nM and the IC50 [2] was 31 nM.
Work on CCn1cc2cc(-n3nc(-c4cccc5nn(C[C@H](O)c6ccccc6)cc45)c(C(C)C)c3C)c(C)nc2n1 [Example 100, (1R)-2-[4-(1-{2-ethyl-6-methyl-2H-pyrazolo[3,4-b]pyridin-5-yl}-5-methyl-4-(propan-2-yl)-1H-pyrazol-3-yl)-2H-indazol-2-yl]-1-phenylethan-1-ol] yielded an IC50 [1] of 6.9 nM and an IC50 [2] of 37 nM.
For Cc1c(C(C)C)c(-c2cccc3nn(C[C@H](O)c4ccc(OCCN(C)C)cc4)cc23)nn1-c1cc2cn(C)nc2nc1C1CC1 [Example 101], the IC50 [1] was 10.6 nM and the IC50 [2] was 39 nM.
Cc1nc2nn(C)cc2cc1-n1nc(-c2cccc3nn(C[C@H](O)c4ccccc4)cc23)c(C(C)C)c1C [Example 102, (1R)-2-[4-(1-{2,6-Dimethyl-2H-pyrazolo[3,4-b]pyridin-5-yl}-5-methyl-4-(propan-2-yl)-1H-pyrazol-3-yl)-2H-indazol-2-yl]-1-phenylethan-1-ol] showed an IC50 [1] of 3.6 nM and an IC50 [2] of 40 nM.
Cc1nc2nn(CC(F)F)cc2cc1-n1nc(-c2cccc3nn(C[C@H](O)c4ccccc4)cc23)c(C(C)C)c1C [Example 103, (1R)-2-(4-{1-[2-(2,2-difluoroethyl)-6-methyl-2H-pyrazolo[3,4-b]pyridin-5-yl]-5-methyl-4-(propan-2-yl)-1H-pyrazol-3-yl}-2H-indazol-2-yl)-1-phenylethan-1-ol] showed an IC50 [1] of 9.3 nM and an IC50 [2] of 44 nM.
In the case of Cn1c(-c2cc3cn(CCC#N)nc3nc2C2CC2)nc(-c2cccc3nn(C[C@H](O)c4ccccc4)cc23)c1C1CC1 [Example 104, 3-[6-cyclopropyl-5-(5-cyclopropyl-4-{2-[(2R)-2-hydroxy-2-phenylethyl]-2H-indazol-4-yl}-1-methyl-1H-imidazol-2-yl)-2H-pyrazolo[3,4-b]pyridin-2-yl]propanenitrile], the IC50 [1] is reported as 2 nM and the IC50 [2] is reported as 49 nM.
In the case of Cc1nc2cc(C)c(-n3nc(-c4cccc5nn(C[C@H](O)c6ccccc6)cc45)c(C(C)C)c3C)cc2[nH]1 [Example 105, (1R)-2-{4-[1-(2,5-dimethyl-1H-1,3-benzodiazol-6-yl)-5-methyl-4-(propan-2-yl)-1H-pyrazol-3-yl]-2H-indazol-2-yl}-1-phenylethan-1-ol], the IC50 [1] is reported as 78.1 nM and the IC50 [2] is reported as 1600 nM.
